Source: PubChem BioAssay AID2060345 (Molecular Pharmacology Branch, DTP, NCI, 2025)
pIC50: −log10 of the molar value. “And” between values parts separate entries of the source, which are not always exact repeats. Equal values may be shown once.

System: MALME-3M multicell spheroids, viability
Assay: Anticancer human tumor MALME-3M cell line growth inhibition [TAK];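 further: spheroids exposed to drugs for seven days before readout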
Conditions: for viability, T/C: stronger effect = lower value; active means viability on the fitted dose curve at most 10% of control; inactive means the rest
From the text: Combinatorial screen of targeted agents with TAK-243 and ipatasertib in multi-cell type tumor spheroids
A high-throughput screen of multi-cell type tumor spheroids was designed to identify active combinations of targeted small molecules and TAK-243 or ipatasertib. Complex spheroids include a stromal component modeled by human endothelial cells (HUVEC) and fibroblasts modeled by human mesenchymal stem cells (MSCs). The concentration ranges selected for each drug and investigational agent were based upon clinically achievable concentrations if the clinical Cmax of the agent was known.
Compounds. The drugs and investigational agents: TAK-243 (785004), ipatasertib (767898), everolimus (733504), selumetinib (741078), bortezomib (756655), trametinib (758246), ixazomib (758254), vemurafenib (761431), dabrafenib (764134), sapanisertib (764658), alpelisib (765974), and copanlisib (816437), were obtained from the National Cancer Institute (NCI) Developmental Therapeutics Program Chemical Repository. The FDA-approved anticancer drug set is available from the NCI Developmental Therapeutics Program. […] The stock solutions were prepared in dimethyl sulfoxide (DMSO, Sigma-Aldrich, St. Louis, MO, cat. D2650) at 800-fold the tested concentration and stored at -70 degrees C prior to their use. All drugs and investigational agents were tested over a range starting from a high concentration at or near the clinical Cmax and decreasing in half-log increments. If the clinical Cmax for an agent had not been determined, the highest concentration tested was 10 microM.
NCI60 Cell Culture. NCI60 cell lines were obtained from the NCI Developmental Therapeutics Program Tumor Repository. For each lot of cells, the Repository performed Applied Biosystems AmpFLSTR Identifiler testing with PCR amplification to confirm consistency with the published Identifier STR profile for each cell line. Cells were kept in continuous culture for no more than 20 passages. The optimal seeding densities for each of the cell lines at each time point assessed were determined prior to performing the concentration response studies. Briefly, the NCI60 human tumor lines were grown as monolayers in RPMI 1640 medium supplemented with 10% FBS and 2 mmol/L L-glutamine.
An additional 2 lines were from the NCI60 cell line panel including melanomas, MALME-3M and SK-MEL-2. Pooled donor human umbilical vein endothelial cells (HUVEC, Lonza, cat. CC-2519) and human mesenchymal stem cells (hMSC, Lonza, cat. PT-2501) were purchased from Lonza (Walkersville, MD).
PDMR cell lines were grown in complete medium (DC medium): Dulbecco's modified Eagle's medium (DMEM)/F12 supplemented with 5% fetal bovine serum (FBS), 2 mM L-glutamine, 100 U/mL penicillin and 100 µg/ml streptomycin, 0.4 µg/ml hydrocortisone, 10 ng/ml epidermal growth factor (EGF) recombinant human protein, 24 µg/mL adenine, and 0.1 mg/mL primocin. During culture from frozen stock vials, PDMR cells were cultured in the same medium containing 10 µM Y-27632 (see Table 3). The PDCs were cultured in complete DMEM/F12 media without 10 microM Y-27632 dihydrochloride for at least two passages prior to the screen. The pooled donor HUVEC and hMSC were cultured in endothelial cell growth medium 2 (PromoCell, Heidelberg, Germany, cat. C-22011) and mesenchymal stem cell growth medium 2 (PromoCell, cat. C-28009), respectively. For all experiments, HUVEC and hMSC were used at passages </=5.
For the pre-screen, cell seeding densities were determined from a titration spanning the range from 5,000 to 313 cells per well. The mct-spheroids including 60% malignant cells, 25% HUVEC and 15% MSC dispensed as a mixture into U-bottom Ultra-Low Attachment 384-well plates (Corning, NY)
High-throughput Drug Combination Screening.
Prior to their inoculation into 384-well plates, malignant cells, HUVEC, and hMSC were removed from T flasks using TrypLE express (Thermo Fisher Scientific, cat. 12605036) and harvested by centrifugation for 5 min at 233 x g. […]

[1] = curve of first compound, second compound 0.3 µM
[2] = curve of first compound, second compound 0.949 µM
[3] = curve of first compound, second compound 3 µM
[4] = curve of first compound, second compound 9.49 µM
[5] = curve of first compound, second compound 30 µM
[6] = second compound 0.3 µM, first compound 0.316 µM
[7] = second compound 0.3 µM, first compound 1 µM
[8] = second compound 0.3 µM, first compound 3.16 µM
[9] = second compound 0.3 µM, first compound 10 µM
[10] = second compound 0.949 µM, first compound 0.316 µM
[11] = second compound 0.949 µM, first compound 1 µM
[12] = second compound 0.949 µM, first compound 3.16 µM
[13] = second compound 0.949 µM, first compound 10 µM
[14] = second compound 3 µM, first compound 0.316 µM
[15] = second compound 3 µM, first compound 1 µM
[16] = second compound 3 µM, first compound 3.16 µM
[17] = second compound 3 µM, first compound 10 µM
[18] = second compound 9.49 µM, first compound 0.316 µM
[19] = second compound 9.49 µM, first compound 1 µM
[20] = second compound 9.49 µM, first compound 3.16 µM
[21] = second compound 9.49 µM, first compound 10 µM
[22] = second compound 30 µM, first compound 0.316 µM
[23] = second compound 30 µM, first compound 1 µM
[24] = second compound 30 µM, first compound 3.16 µM
[25] = second compound 30 µM, first compound 10 µM

CCCS(=O)(=O)Nc1ccc(F)c(C(=O)c2c[nH]c3ncc(-c4ccc(Cl)cc4)cc23)c1F + CC(C)NCC(C(=O)N1CCN(c2ncnc3c2C(C)CC3O)CC1)c1ccc(Cl)cc1
active: viability, T/C (second compound 0.3 µM, first compound 100 µM) 11.1% | viability, T/C (second compound 0.949 µM, first compound 100 µM) 12.1% | viability, T/C (second compound 3 µM, first compound 31.6 µM) 1.69% | viability, T/C (second compound 3 µM, first compound 100 µM) 3.88% | viability, T/C (second compound 9.49 µM, first compound 31.6 µM) 0.89% | viability, T/C (second compound 9.49 µM, first compound 100 µM) 1.65% | viability, T/C [24] 9.92% | viability, T/C [25] 0.89% | viability, T/C (second compound 30 µM, first compound 31.6 µM) 0.35% | viability, T/C (second compound 30 µM, first compound 100 µM) 0.54%
inactive: viability, T/C [6] 29.3% | viability, T/C [7] 21.5% | viability, T/C [8] 23.6% | viability, T/C [9] 19.3% | viability, T/C (second compound 0.3 µM, first compound 31.6 µM) 0.51% | viability, T/C [10] 31.8% | viability, T/C [11] 25.8% | viability, T/C [12] 23.6% | viability, T/C [13] 22.1% | viability, T/C (second compound 0.949 µM, first compound 31.6 µM) 2.72% | viability, T/C [14] 30% | viability, T/C [15] 24.9% | viability, T/C [16] 21.4% | viability, T/C [17] 15.9% | viability, T/C [18] 24.8% | viability, T/C [19] 20.6% | viability, T/C [20] 17.9% | viability, T/C [21] 10.8% | viability, T/C [22] 15.1% | viability, T/C [23] 16.4%
> 6.50: pIC50 [1] | pIC50 [2] | pIC50 [3] | pIC50 [4] | pIC50 [5]

CC(C)(C)c1nc(-c2cccc(NS(=O)(=O)c3c(F)cccc3F)c2F)c(-c2ccnc(N)n2)s1 + CC(C)NCC(C(=O)N1CCN(c2ncnc3c2C(C)CC3O)CC1)c1ccc(Cl)cc1
inactive: viability, T/C (second compound 0.3 µM, first compound 0.0316 µM) 26.6% | viability, T/C (second compound 0.3 µM, first compound 0.1 µM) 23.6% | viability, T/C [6] 25% | viability, T/C [7] 25.8% | viability, T/C [8] 22.2% | viability, T/C [9] 29.6% | viability, T/C (second compound 0.949 µM, first compound 0.0316 µM) 27.1% | viability, T/C (second compound 0.949 µM, first compound 0.1 µM) 26.2% | viability, T/C [10] 23.2% | viability, T/C [11] 24.8% | viability, T/C [12] 20.6% | viability, T/C [13] 26.2% | viability, T/C (second compound 3 µM, first compound 0.0316 µM) 25.4% | viability, T/C (second compound 3 µM, first compound 0.1 µM) 26.8% | viability, T/C [14] 21.3% | viability, T/C [15] 20.1% | viability, T/C [16] 15.4% | viability, T/C [17] 21.5% | viability, T/C (second compound 9.49 µM, first compound 0.0316 µM) 23% | viability, T/C (second compound 9.49 µM, first compound 0.1 µM) 21% | viability, T/C [18] 19.5% | viability, T/C [19] 15.6% | viability, T/C [20] 14.1% | viability, T/C [21] 17.1% | viability, T/C (second compound 30 µM, first compound 0.0316 µM) 17.1% | viability, T/C (second compound 30 µM, first compound 0.1 µM) 18.4% | viability, T/C [22] 18.5% | viability, T/C [23] 11.4% | viability, T/C [24] 8.12%
active: viability, T/C [25] 11.6%
> 7.50: pIC50 [1] | pIC50 [2] | pIC50 [3] | pIC50 [4] | pIC50 [5]

COC1CC2CCC(C)C(O)(O2)C(=O)C(=O)N2CCCCC2C(=O)OC(C(C)CC2CCC(OCCO)C(OC)C2)CC(=O)C(C)C=C(C)C(O)C(OC)C(=O)C(C)CC(C)C=CC=CC=C1C (centres undefined)
inactive: viability, T/C (compound 0.000316 µM) 83% and 79.4% | viability, T/C (compound 0.001 µM) 66.2% and 59.1% | viability, T/C (compound 0.00316 µM) 58.1% and 59.4% | viability, T/C (compound 0.01 µM) 52.3% and 58.6% | viability, T/C (compound 0.0316 µM) 50.5% and 50.7% | viability, T/C (compound 0.1 µM) 44.2% and 44%
7.73 and 7.55: pIC50 (curve of compound)

CCCS(=O)(=O)Nc1ccc(F)c(C(=O)c2c[nH]c3ncc(-c4ccc(Cl)cc4)cc23)c1F
> 6.50: pIC50 (curve of compound)
inactive: viability, T/C (compound 0.316 µM) 26.3% and 29.5% | viability, T/C (compound 1 µM) 22.6% and 22.5% | viability, T/C (compound 3.16 µM) 19.4% and 20.7% | viability, T/C (compound 10 µM) 15.4% and 17% | viability, T/C (compound 31.6 µM) 19.3% and 3.37% | viability, T/C (compound 100 µM) 15.6% and 16.2%
